Experiments:
[1] = target: T1, MBR (mitochondrial benzodiazepine recognition site) (Rattus norvegicus, UniProt P16257); assay: Displacement of ^3 H-PK11195 from mitochondrial BZD recognition site (MBR); assay type: binding, Sprague Dawley rat; conditions: for IC50: displacement of 1 nM ^3 H-PK11195, rat mitochondria, range in parentheses; for ^3 H-PK11195 / ^3 H-RO5-4864: ratio of the two IC50 values
T1 construct: Brain and adrenal glands were removed and homogenized with Polytron; from tissue; host or cells: mitochondrial fraction of Sprague Dawley rat brain and adrenal glands
Protocol: (§1) Mitochondrial Preparation: Sprague Dawley rats (200-250 gr.) were killed by decapitation. Brain and adrenal glands were removed and homogenized with Polytron for 15 minutes in ice cold buffer (10 mM Na/KPO4, 0.32M sucrose, pH 7.4). The homogenate was centrifuged for 15 minutes at 6,500 xg at 4° C. The resulting supernatant was centrifuged for 15 minutes at […] at 4° C. The pellet was suspended in buffer (20 times) by gentle homogenization and centrifuged at 10,000 xg at 4° C. for 15 minutes. The washed mitochondrial pellet was stored at -70° C.
(§2) For the binding assay the mitochondrial fraction was diluted with 50 mM Na/KPO4 buffer (pH 7.4) to give a final protein concentration of […] in 100 μl buffer. This suspension was incubated with 1 nM of ^3 H PK-11195 or ^3 H RO 5-4864 (50 μl) with or without 10/μM unlabeled PK-11195 or RO 5-4864 to assess the extent of total and non-specific binding. Different amounts of indole derivatives were added to the incubation medium in a volume of 50 μl. After incubation for 60 minutes at 4° C., samples were filtered and the radioactivity was measured in a scintillation counter.

[2] = target: T1, MBR (mitochondrial benzodiazepine recognition site); assay: Displacement of ^3 H-RO5-4864 from mitochondrial BZD recognition site (MBR); assay type: binding, Sprague Dawley rat; conditions: displacement of 1 nM ^3 H-RO5-4864, rat mitochondria; range in parentheses
Protocol: as §1, §2

[3] = target: T2, BZD binding site located on the GABAA receptor (Rattus norvegicus, UniProt P18508+P62813); assay: ^3 H-FLUMAZENIL binding, crude synaptic membranes; design: species or system Sprague Dawley rat; conditions: 2 nM ^3 H-FLUMAZENIL, rat cerebellum membranes
T2 construct: The cerebella were removed and incubated for 20 minutes in ice cold double distilled water; from tissue; host or cells: crude synaptic membranes of Sprague Dawley rat cerebellum
Protocol: (§3) Crude Synaptic Membrane Preparation: Sprague Dawley rats (200-250 gr.) were killed by decapitation. The cerebella were removed and incubated for 20 minutes in ice cold double distilled water after homogenization with Polytron. The homogenate was centrifuged at 18,000 xg at 4° C. for 10 minutes. The pellet was suspended in ice-cold buffer 50 mM Na/KPO4(pH 7.4) and centrifuged at 18,000 xg at 4° C. for 10 minutes. After two other centrifugations, the membranes were suspended in 5 ml of buffer and the proteins were measured.
(§4) The membranes were diluted with 50 mM Na/KPO4 buffer (pH 7.4) to a concentration of 150 μg of protein/ml, and 150 μl aliquots of the suspension were incubated with 50 μl of the different ligands to be tested: ^3 H-ZOLPIDEM(2 nM), ^3 H-FLUMAZENIL (2 nM), ^3 H-GABA(10 nM), ^3 H-MK 801(5 nM), ^3 H-KETANSERIN(1 nM), ^3 H-GLYCINE(20 nM), ^3 H-SPIPERONE(1 nM), ^3 H-AMPA(10 nM), ^3 H-3-PPP(1 nM), and ^3 H-NALOXONE(1 nM). Non-specific binding was assessed by displacing with 10 to 1000/μM of cold ligand.

[4] = target: T3, ^3 H-ZOLPIDEM binding (crude synaptic membrane) (Rattus norvegicus, UniProt P18508+P62813); assay: ^3 H-ZOLPIDEM binding, crude synaptic membranes; design: species or system Sprague Dawley rat; conditions: 2 nM ^3 H-ZOLPIDEM, rat cerebellum membranes
T3 construct: from tissue; host or cells: crude synaptic membranes of Sprague Dawley rat cerebellum
Protocol: as §3
as §4, with “ligand. The different indole derivatives were added in a volume of 50 μl in a concentration varying from 10^-9 to 10^-3 M. The results are reported in Table I hereinbelow.” for “ligand.”

Sprague Dawley rats = assay: Elevated X maze test; assay type: in vivo, Sprague Dawley rat; conditions: for Entries in open arms, test after 10 min injection / Entries in open arms, test after 20 min injection / Entries in open arms, test after 30 min injection: 20 mg/kg i.v., rats; for behavioral output of rats in the elevated X maze test: in words
Protocol: The elevated X maze is a behavioral test to detect anxiolytic drugs in rodents. […] The plus-maze consists of two open arms (43×8 cm) and two similarly sized enclosed arms with 9 cm high walls, arranged so that the arms of the same type are opposite each other. There is a central square of 8 cm. The apparatus is elevated to a height of 10 cm and each arm is divided into 3 squares.
Sprague Dawley rats weighing 200-250 gr. were housed in a room with a 12 hour light: 12 hour dark cycle and were allowed free access to food and water. After an i.v. injection of different indole derivatives, the rats were kept separated for 10, 20 or 30 minutes before testing. The testing period commenced when each animal was placed onto the central square of the maze. The number of entries in each arm was then recorded for 5 minutes. The maze was cleaned with water after each trial. The number of entries in the open arms provided a measure of anxiolytic activity of the drugs.

[5] = target: ^3 H-GABA binding (crude synaptic membrane); assay: ^3 H-GABA binding, crude synaptic membranes; design: species or system Sprague Dawley rat; conditions: 10 nM ^3 H-GABA, rat cerebellum membranes
Protocol: as §3
as §4, with “ligand. The different indole derivatives were added in a volume of 50 μl in a concentration varying from 10^-9 to 10^-3 M. The results are reported in Table I hereinbelow.” for “ligand.”

[6] = system: mitochondrial pregnenolone formation, C6-2B glioma cells; assay: Pregnenolone formation in glial mitochondria (C6-2B glioma cells); assay type: biochemical; conditions: for Effective concentration, maximal / EC50: C6 glial cell mitochondria, 15 minutes at 37° C.; for EC50: read-out: Effective concentration, 50%; for Stimulation %: pregnenolone formation, increase over the control
Protocol: The mixture was preincubated for 5 minutes at 37° C. The incubation mixture was extracted with 5 ml chloroform/methanol (2:1, vol/vol), and the organic phase was evaporated to dryness. Pregnenolone was measured by a specific radioimmunoassay using an antibody obtained from Radioassay Systems Laboratories, Carson, Calif.

T3 sequence (P62813 28-455): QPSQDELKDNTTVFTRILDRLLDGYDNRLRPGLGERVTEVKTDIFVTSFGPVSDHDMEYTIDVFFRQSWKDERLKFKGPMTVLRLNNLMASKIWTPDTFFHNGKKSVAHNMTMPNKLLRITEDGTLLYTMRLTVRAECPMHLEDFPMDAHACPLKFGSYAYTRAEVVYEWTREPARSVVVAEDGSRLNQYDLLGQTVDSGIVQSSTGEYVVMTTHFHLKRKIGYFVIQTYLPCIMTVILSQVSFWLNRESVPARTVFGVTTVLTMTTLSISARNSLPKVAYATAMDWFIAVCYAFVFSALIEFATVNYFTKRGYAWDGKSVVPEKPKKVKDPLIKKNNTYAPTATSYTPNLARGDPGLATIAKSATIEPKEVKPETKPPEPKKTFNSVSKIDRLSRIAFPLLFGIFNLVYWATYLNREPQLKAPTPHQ
T3 sequence (P18508 39-466): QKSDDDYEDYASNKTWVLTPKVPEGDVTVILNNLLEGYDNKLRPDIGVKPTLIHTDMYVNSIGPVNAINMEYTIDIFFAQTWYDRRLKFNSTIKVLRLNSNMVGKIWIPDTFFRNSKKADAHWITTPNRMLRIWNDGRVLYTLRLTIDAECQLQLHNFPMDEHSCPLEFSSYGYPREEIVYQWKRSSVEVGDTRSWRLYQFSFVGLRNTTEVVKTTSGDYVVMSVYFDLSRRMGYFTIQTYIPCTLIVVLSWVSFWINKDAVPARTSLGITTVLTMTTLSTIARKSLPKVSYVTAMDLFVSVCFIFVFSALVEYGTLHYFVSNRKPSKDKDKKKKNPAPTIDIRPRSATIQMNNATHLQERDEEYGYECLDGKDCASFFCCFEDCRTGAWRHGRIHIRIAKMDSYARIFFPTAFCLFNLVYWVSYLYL
T2 sequence (P62813 28-455): as the sequence (P62813 28-455) above
T2 sequence (P18508 39-466): as the sequence (P18508 39-466) above

Compound | IC50 [1] [nM] | IC50 [2] [nM] | IC50 [3] [nM] | ^3 H-PK11195 / ^3 H-RO5-4864 [1] | IC50 [4] [nM] | IC50 [5] [nM] | binding to MBR in words ([1]; Tables I and II compared) | EC50 [6] [nM] | Entries in open arms, test after 10 min injection (Sprague Dawley rats) | behavioral output of rats in the elevated X maze test (Sprague Dawley rats) | Entries in open arms, test after 20 min injection (Sprague Dawley rats) | Entries in open arms, test after 30 min injection (Sprague Dawley rats) | Effective concentration, maximal [6] | intrinsic efficacy (pregnenolone formation) ([6]; in words) | Stimulation % [6]
c1ccc(-c2[nH]c3ccccc3c2CC2=NCCN2)cc1 [Compound No. 15] | > 1000 | > 1000 | > 1000 | – | – | – | – | – | – | – | – | – | – | – | –
CCCN(CCC)C(=O)C(C)c1c(-c2ccc(Cl)cc2)[nH]c2ccccc12 (stereo not drawn) [compound 19] | > 1000 | > 1000 | > 1000 | – | – | – | – | – | 1 | increase the behavioral output | – | – | – | – | –
CCCN(CCC)C(=O)Cc1c(-c2cccc(Cl)c2)[nH]c2ccccc12 [compound 21] | 100 | 80 | > 1000 | 1.2 | – | > 1000 | – | – | 2 | increase the behavioral output | 4 | 0 | – | – | –
CN(C)C(=O)Cc1c(-c2ccccc2)[nH]c2ccccc12 [Compound No. 7] | 600 | 600 | > 1000 | 1 | > 1000 | – | relatively high affinity | 10 | – | – | – | – | 10^-7 M | low intrinsic efficacy | 131%
CCCN(CCC)C(=O)Cc1c(-c2ccc(Cl)cc2)n(C)c2ccccc12 [compound 22] | 200 | 200 | > 1000 | 1 | – | – | – | – | 3 | increase the behavioral output | 2 | 6 | 10^-8 M | – | 170%
O=C(Cc1c(-c2ccccc2)[nH]c2ccccc12)N1CCCCC1 [Compound No. 3] | 84 | 59 | – | 1.4 | > 1000 | – | – | – | – | – | – | – | – | – | –
CCCN(CCC)C(=O)Cc1c(-c2ccc(F)cc2)[nH]c2ccccc12 [compound 20] | 100 | 50 | > 1000 | 2 | – | > 1000 | – | 0.33 | 3 | increase the behavioral output | 2 | 6 | 10^-9 M | – | 183%
Cc1ccc(-c2[nH]c3ccc(C)cc3c2CC(=O)N(C)C)cc1 [Compound No. 9] | > 1000 | 255 | – | > 3 | > 1000 | – | – | – | – | – | – | – | > 10^-6 M | – | none
CCCN(CCC)C(=O)CCc1c(-c2ccc(Cl)cc2)[nH]c2ccc(Cl)cc12 [compound 11] | 180 | 120 | > 1000 | 1.5 | > 1000 | – | – | – | – | – | – | – | – | – | –
CCCN(CCC)C(=O)C=Cc1c(-c2ccc(Cl)cc2)[nH]c2ccccc12 [compound 24] | 700 | 600 | > 1000 | 1.1 | > 1000 | – | – | – | 3 | increase the behavioral output | 2 | 3 | – | – | –

Compounds with a lower IC50 [1], results first:

IC50 [1] [nM] | IC50 [2] [nM] | IC50 [3] [nM] | ^3 H-PK11195 / ^3 H-RO5-4864 [1] | IC50 [4] [nM] | IC50 [5] [nM] | binding to MBR in words ([1]; Tables I and II compared) | EC50 [6] [nM] | Compound | Entries in open arms, test after 10 min injection (Sprague Dawley rats) | behavioral output of rats in the elevated X maze test (Sprague Dawley rats) | Entries in open arms, test after 20 min injection (Sprague Dawley rats) | Entries in open arms, test after 30 min injection (Sprague Dawley rats) | Effective concentration, maximal [6] | intrinsic efficacy (pregnenolone formation) ([6]; in words) | Stimulation % [6]
30 | 40 | > 1000 | 0.75 | – | – | – | – | CCCN(CCC)C(=O)Cc1c2n(c3ccccc13)Cc1ccccc1-2 [Compound No. 16] | – | – | – | – | – | – | –
24 | 14.5 | > 1000 | 1.6 | > 1000 | – | – | – | CCCN(CCC)C(=O)Cc1c(-c2cccs2)[nH]c2ccccc12 [Compound No. 10] | – | – | – | – | – | – | –
28.5 | 25.5 | > 1000 | 1.1 | > 1000 | > 1000 | – | – | CCCN(CCC)C(=O)Cc1c(-c2ccc(Cl)cc2)[nH]c2ccccc12 [compound 5] | – | – | – | – | – | – | –
68.5 | 41.5 | – | 1.6 | > 1000 | – | – | 33 | CCCN(CCC)C(=O)Cc1c(-c2ccc(C)cc2)[nH]c2ccc(C)cc12 [Compound No. 8] | – | – | – | – | 10^-7 M | – | 220%
50 | 37.5 | > 1000 | 1.3 | – | – | – | – | CCCN(CCC)C(=O)Cc1c(-c2cccs2)[nH]c2ccc(Cl)cc12 [compound 17] | – | – | – | – | – | – | –
75 | 36 | > 1000 | 2 | – | – | – | – | CCCN(CCC)C(=O)Cc1c(-c2ccc(Br)cc2)[nH]c2ccccc12 [compound 18] | 2 | increase the behavioral output | – | – | – | – | –
45 | 40 | > 1000 | 1.1 | > 1000 | – | – | – | CCCN(CCC)C(=O)Cc1c(-c2ccc(Cl)cc2)[nH]c2ccc(Cl)cc12 [Compound No. 6] | – | – | – | – | – | – | –
57.5 | 32.5 | > 1000 | 1.8 | > 1000 | > 1000 | – | – | CCCCCCNC(=O)Cc1c(-c2ccccc2)[nH]c2ccccc12 [Compound No. 13] | 2 | increase the behavioral output | 2 | 3 | – | – | –
